What all share (type): cell-based, human
One assay has as its system Jurkat cells. As to the kind of experiment: MTT cell viability assay, Jurkat cells. Particulars: for IC50: Homo sapiens, Jurkat, MTT, n = 3; for SI (selectivity index): IC50 PBMC / IC50 Jurkat. The procedure:
(§1) Jurkat and THP-1 cell lines were purchased from the American Type Culture Collection (ATCC, Rockville, MD, USA); Jurkat is a human lymphocytic cell line representing acute T-cell leukemia, and THP-1 is a monocytic cell line that represents acute myelogenous leukemia (AML). […] Cat Nos. […] The cells were maintained at 37 °C in a humidified atmosphere with 5% CO2. The culture medium was exchanged with fresh medium every 2-3 days. Peripheral blood mononuclear cells (PBMCs) were isolated from normal human venous blood. Further, 10 milliliters of human blood was mixed with 10 mL of RPMI-1640 containing 50 μL of heparin and gradually poured over 1 mL of HISTOPAQUE®-1119 (Sigma). The plasma was removed by centrifugation at 3000 rpm for 30 min. The peripheral blood mononuclear cell-containing layer was collected with a pipette and diluted in 4 mL of PBS. PBMCs were harvested by centrifugation at 1500 rpm for 10 min at room temperature, resuspended in RPMI-1640 with 10% FBS, and incubated at 37 °C in 5% CO2 humidified air. […] Doxorubicin was used as a reference standard drug (positive control). After treatment, the medium was discarded; 200 μL of RPMI 1640 medium without phenol red containing 0.5 mg/mL MTT (Sigma Chemical Co., Saint Louis, MO, USA; Cat. No. […] The plates were incubated for four hours at 37 °C with 5% CO2 in a humidified atmosphere. The medium was discarded, and 100 μL of DMSO was added to solubilize the formazan crystals. The absorbance was measured with an ELISA microplate reader at 492 nm (ELx800; BioTek Instruments Inc., Winooski, VT, USA). The percentage of viable cells was calculated on the basis of the nontreated control (taken as 100%). […] Three independent assays were performed, each in triplicate. The selectivity index corresponds to the ratio of the IC50 value calculated for the activity of synthesized compounds on a regular cell line (PBMCs) to that of the IC50 calculated for cancer cell lines (Jurkat and THP-1). Values greater than two were optimal for an efficient selectivity index.
(Tetrazolium assays rely on reduction of a dye to a coloured formazan, in cell work by metabolically active cells.)

Another assay has as its system THP-1 cells. As to the kind of experiment: MTT cell viability assay, THP-1 cells. The note with it: for IC50: MTT, n = 3. The procedure: as §1
A further assay deals with BAX. Briefly: RT-qPCR BAX mRNA expression. Particulars: THP-1, catalposide 44 and 66 μg/mL, specioside 20, 40 and 60 μg/mL. The procedure:
(§2) After treatment, mRNA extraction was performed using the RNeasy Plus Mini Kit (Qiagen, Germantown, MD, USA; Cat No. 74134). The mRNA was quantified with a NanoDrop 2000c (Thermo Fisher Scientific, Waltham, MA, USA). The expression of the MAPK14 (gene encoding p38), BCL2, and BAX genes was evaluated by qRT–PCR and quantified with the 2^−ΔΔCt method in the Applied Biosystems StepOnePlus Real-Time PCR System (Applied Biosystems, Foster City, CA, USA), which uses predesigned TaqMan Gene Expression Assays (codes […], Hs00608023_m1, and Hs00180269_m1, respectively) (Applied Biosystems, Foster City, CA, USA) and the TaqMan® RNA-to-CT TM 1-Step Kit (Applied Biosystems, Foster City, CA, USA, Cat No. 4392653). The reaction mixture was incubated at 48 °C for 15 min and 95 °C for 10 min and then cycled (40 cycles) at 95 °C for 15 s and 60 °C for 1 min. GAPDH was used as an endogenous control.
A general note: Real-time PCR tracks product formation cycle by cycle.

For another assay, the system named is BCL2. As to the kind of experiment: RT-qPCR BCL2 mRNA expression. The note with it: THP-1, catalposide 44 μg/mL, specioside 40 μg/mL. The procedure: as §2
A further assay has as its system Bcl-2. Briefly: Western blot Bcl-2 protein. Particulars: THP-1, catalposide 44 μg/mL, specioside 40 μg/mL, APC pretreatment (Figure 9). As to the method:
(§3) THP-1 cells were seeded in 24-well plates (5 × 10^5 cells/well), and after 24 h of incubation, they were pretreated with 1 µM apicidin for 24 h and then treated with different concentrations of the n-butanol extract, catalposide, and specioside for 24 h. After treatment, the cells were lysed with an Abcam protein extraction kit (ab270054), and a phosphatase inhibitor cocktail (ab201115) was added. The supernatants of the cell extracts were quantified with a BCA protein assay (Thermo Scientific Pierce #23227, Waltham, MA, USA). Equivalent amounts of protein were electrophoresed on 10% SDS polyacrylamide gels and then electroblotted onto 0.45 μm polyvinylidene difluoride (PVDF) membranes (GE Healthcare, Chicago, IL, USA). […] The signals were detected using SuperSignal™ West Pico PLUS Chemiluminescent Substrate (Thermo Scientific Pierce cat 34577) and analyzed with a ChemiDoc XRS+ system (Bio-Rad, Hercules, CA, USA). The density of each band was measured using ImageJ software V. 1.53n, 7 November 2021 (NIH, Bethesda, MD, USA), and the protein levels were normalized to the GAPDH levels. The data are expressed as the means of three independent experiments. […]
For orientation: Immunoblotting shows a protein as a band on a membrane.

Another assay concerns p38 MAPK. Briefly: Western blot p38 phosphorylation. Particulars: THP-1, APC pretreatment, p < 0.001. The procedure: as §3
For the next assay, the system named is JNK. As to the kind of experiment: Western blot JNK phosphorylation. Particulars: THP-1, 24 h; specioside all concentrations except 60 μg/mL in presence of APC. As to the method: as §3
The subject of the next assay is ERK. As to the kind of experiment: Western blot ERK phosphorylation. Particulars: THP-1, 24 h. The procedure:
as §3

The mark [1] stands for this setting: Homo sapiens, THP-1, 12 h, read-out: IC50.
Where [2] appears, read: Homo sapiens, THP-1, 24 h, read-out: IC50.
[3] abbreviates: Homo sapiens, THP-1, 48 h, read-out: IC50.

Structures are written as SMILES. Values after ≈ are worked out from the molar mass of the structure shown. Like-named read-outs stand apart in the source and are kept apart here.

For `O=C(O[C@H]1[C@@H]2C=CO[C@@H](O[C@@H]3O[C@H](CO)[C@@H](O)[C@H](O)[C@H]3O)[C@@H]2[C@@]2(CO)O[C@@H]12)c1ccc(O)cc1` [Catalposide, catalposide], the IC50 in the assay with Jurkat cells (12 h) was determined as 107 ± 5.3 µg/mL (≈ 221 µM); with Jurkat cells (24 h), 92.8 ± 1.5 µg/mL (≈ 192 µM); in the assay on Jurkat cells (48 h), 71.2 ± 2.8 µg/mL (≈ 148 µM); in the assay on THP-1 cells (setting [1]) it was 122 ± 3.3 µg/mL (≈ 252 µM); with THP-1 cells (setting [2]), 43.9 µg/mL (≈ 91 µM); in the assay on THP-1 cells (setting [3]) it was 30.2 ± 1.67 µg/mL (≈ 62.5 µM). Besides, in the assay with THP-1 cells (THP-1, 24 h), the IC50 turned out to be 43.86 ± 2.2 µg/mL (≈ 90.9 µM). Besides, the “SI (selectivity index)” value with Jurkat cells (12 h) stood at 1.18; in the assay on Jurkat cells (24 h), 0.94; in the assay on Jurkat cells (48 h), 0.61; in the assay on THP-1 cells (IC50 PBMC / IC50 THP-1, 12 h), 1.03; in the assay with THP-1 cells (IC50 PBMC / IC50 THP-1, 24 h), 1.99; in the assay with THP-1 cells (IC50 PBMC / IC50 THP-1, 48 h) it was 1.44. For the same molecule, the “expression of Bax mRNA with APC pretreatment” value with BAX is recorded as “increased”. In the assay with BCL2, the “expression of Bcl-2 mRNA with APC” value was “decreased”. For the same molecule, the “antiapoptotic protein Bcl-2 (Western blot)” value with Bcl-2 was “decrease”. For the same molecule, the “phosphorylation of p38 in cells pretreated with APC compared with control” value with p38 MAPK is recorded as “significantly increased”. In addition, the “phosphorylation of the JNK protein compared with control” value with JNK is reported as “did not significantly change”. Moreover, the “phosphorylation of the ERK protein compared with control” value in the assay with ERK was “decreased protein phosphorylation but not significantly”.

Take `O=C(/C=C/c1ccc(O)cc1)O[C@H]1[C@@H]2C=CO[C@@H](O[C@@H]3O[C@H](CO)[C@@H](O)[C@H](O)[C@H]3O)[C@@H]2[C@@]2(CO)O[C@@H]12` [Specioside]: the IC50 with Jurkat cells (12 h) turned out to be 137.7 ± 1.3 µg/mL (≈ 271 µM); with Jurkat cells (24 h), 81.7 ± 3.5 µg/mL (≈ 161 µM); in the assay with Jurkat cells (48 h), 68.9 ± 2.1 µg/mL (≈ 135 µM); in the assay with THP-1 cells (setting [1]) it was 47.2 ± 2.3 µg/mL (≈ 92.9 µM); with THP-1 cells (setting [2]) it was 40.3 µg/mL (≈ 79.3 µM); in the assay with THP-1 cells (setting [3]), 26.3 ± 6.8 µg/mL (≈ 51.8 µM). This molecule also returned an IC50 in the assay on THP-1 cells (THP-1, 24 h) of 40.32 ± 1.3 µg/mL (≈ 79.3 µM). Further, the “SI (selectivity index)” value in the assay with Jurkat cells (12 h) is on record as 1.20; in the assay with Jurkat cells (24 h), 0.86; in the assay on Jurkat cells (48 h), 0.79; with THP-1 cells (IC50 PBMC / IC50 THP-1, 12 h) it was 3.49; in the assay with THP-1 cells (IC50 PBMC / IC50 THP-1, 24 h), 1.75; in the assay with THP-1 cells (IC50 PBMC / IC50 THP-1, 48 h), 2.06. For the same molecule, the “expression of Bax mRNA with APC pretreatment” value with BAX is recorded as “increased”. Besides, the “expression of Bcl-2 mRNA with APC” value in the assay with BCL2 is “decreased”. Further, the “antiapoptotic protein Bcl-2 (Western blot)” value in the assay on Bcl-2 was “decrease”. Moreover, the “phosphorylation of p38 in cells pretreated with APC compared with control” value in the assay on p38 MAPK is given as “significantly increased”. Also, the “phosphorylation of the JNK protein compared with control” value in the assay with JNK is on record as “significantly phosphorylated”. In the assay on ERK, the “phosphorylation of the ERK protein compared with control” value is “did not significantly change”.

One may read the IC50 as the concentration that inhibits the measured activity by half.

The values above are taken from paper PMC11396062, “The n-Butanol Extract Obtained from the Inner Bark of Tabebuia rosea (Bertol.) DC, Specioside, and Catalposide Induce Leukemia Cell Apoptosis in the Presence of Apicidin” (Molecules, 2024).
